ChEMBL document CHEMBL1201862, “PubChem BioAssay data set” (2004)
Where a name gives a salt, the structure may show the parent alone.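 Compound exposure: 48 hours, 5 concentrations, 96-well plates. GI50 = concentration required for 50% inhibition of growth.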 Calls of active or inactive are those of the source. Rule as the data show it: active = GI50 up to about 1.1 µM and inactive = higher.

Key:
Experiment in all cases: inhibition of tumour cell growth, NCI panel, 48 h
786-0 = tested on: 786-0
A549 = tested on: A549
DMS-273 = tested on: DMS-273
EKVX = tested on: EKVX
HCT-116 = tested on: HCT-116
HT-29 = tested on: HT-29
MCF7 = tested on: MCF7
MDA-MB-435 = tested on: MDA-MB-435
NCI-H226 = tested on: NCI-H226
NCI-H522 = tested on: NCI-H522
OVCAR-8 = tested on: OVCAR-8
RXF 393 = tested on: RXF 393
SF-539 = tested on: SF-539
SK-MEL-28 = tested on: SK-MEL-28
SK-OV-3 = tested on: SK-OV-3
SNB-75 = tested on: SNB-75
SW-620 = tested on: SW-620
TK-10 = tested on: TK-10
UACC-257 = tested on: UACC-257
XF498 = tested on: XF498

For `CNC1C(O)CC(OC2C/C=C(\C)C/C(C)=C/C=C/CCC(C)CNC(=O)/C=C/C=C/C2C)OC1C` (centres undefined), the GI50 (786-0) was 0.245 µM (active), the GI50 (A549) was 0.504 µM (active) and the GI50 (DMS-273) was 0.188 µM (active). The GI50 (EKVX) was 1.6 µM (inactive), the GI50 (HCT-116) was 0.278 µM (active) and the GI50 (HT-29) was 0.224 µM (active). The GI50 (MCF7) was 0.782 µM (active), the GI50 (MDA-MB-435) was 0.377 µM (active) and the GI50 (NCI-H226) was 2.77 µM (inactive). The GI50 (NCI-H522) was 0.973 µM (active), the GI50 (OVCAR-8) was 0.324 µM (active) and the GI50 (RXF 393) was 1.08 µM (active). The GI50 (SF-539) was 0.918 µM (active), the GI50 (SK-MEL-28) was 0.667 µM (active) and the GI50 (SK-OV-3) was 1.15 µM (inactive). For the same compound, the GI50 (SNB-75) was 0.711 µM (active), the GI50 (SW-620) was 0.12 µM (active) and the GI50 (TK-10) was 1.1 µM (active). For the same compound, the GI50 (UACC-257) was 0.667 µM (active) and the GI50 (XF498) was 1.68 µM (inactive).

For `Nc1nc(NCCO)c(N=O)c(=O)[nH]1`, the GI50 (786-0) was > 100 µM (inactive), the GI50 (A549) was > 100 µM (inactive) and the GI50 (DMS-273) was > 100 µM (inactive). For the same compound, the GI50 (EKVX) was > 100 µM (inactive), the GI50 (HCT-116) was > 100 µM (inactive) and the GI50 (HT-29) was > 100 µM (inactive). The GI50 (NCI-H226) was > 100 µM (inactive), the GI50 (NCI-H522) was > 100 µM (inactive) and the GI50 (OVCAR-8) was > 100 µM (inactive). For the same compound, the GI50 (RXF 393) was > 100 µM (inactive), the GI50 (SF-539) was > 100 µM (inactive) and the GI50 (SK-MEL-28) was > 100 µM (inactive). The GI50 (SK-OV-3) was > 100 µM (inactive), the GI50 (SNB-75) was > 100 µM (inactive) and the GI50 (SW-620) was > 100 µM (inactive). The GI50 (TK-10) was > 100 µM (inactive), the GI50 (UACC-257) was > 100 µM (inactive) and the GI50 (XF498) was > 100 µM (inactive).

With `CC(C)(C)c1cc(C(O)(C(F)(F)F)C(F)(F)F)c2c(c1)C(C(F)(F)F)(C(F)(F)F)OC(C(C)(C)C)N2` (centres undefined) the GI50 (786-0) was 3.24 µM (inactive), the GI50 (A549) was 3.28 µM (inactive) and the GI50 (DMS-273) was 2.18 µM (inactive). For the same compound, the GI50 (EKVX) was 4.22 µM (inactive), the GI50 (HCT-116) was 1.96 µM (inactive) and the GI50 (HT-29) was 2.69 µM (inactive). The GI50 (NCI-H226) was 2.7 µM (inactive), the GI50 (NCI-H522) was 2.75 µM (inactive) and the GI50 (OVCAR-8) was 3.05 µM (inactive). For the same compound, the GI50 (RXF 393) was 0.382 µM (active), the GI50 (SF-539) was 2.55 µM (inactive) and the GI50 (SK-MEL-28) was 5.16 µM (inactive). For the same compound, the GI50 (SK-OV-3) was 1.43 µM (inactive), the GI50 (SNB-75) was 2.56 µM (inactive) and the GI50 (SW-620) was 3.21 µM (inactive). For the same compound, the GI50 (TK-10) was 3.27 µM (inactive), the GI50 (UACC-257) was 2.81 µM (inactive) and the GI50 (XF498) was < 0.01 µM (active).

In the case of `NC(=O)NNC(=O)NC12CC3CC(CC(C3)C1)C2`, the GI50 (786-0) is reported as > 100 µM (inactive), the GI50 (A549) is reported as > 100 µM (inactive) and the GI50 (DMS-273) is reported as > 100 µM (inactive). For the same compound, the GI50 (EKVX) was > 100 µM (inactive), the GI50 (HCT-116) was > 100 µM (inactive) and the GI50 (HT-29) was > 100 µM (inactive). For the same compound, the GI50 (NCI-H226) was > 100 µM (inactive), the GI50 (NCI-H522) was > 100 µM (inactive) and the GI50 (OVCAR-8) was > 100 µM (inactive). The GI50 (RXF 393) was > 100 µM (inactive), the GI50 (SF-539) was > 100 µM (inactive) and the GI50 (SK-MEL-28) was > 100 µM (inactive). For the same compound, the GI50 (SK-OV-3) was > 100 µM (inactive), the GI50 (SNB-75) was > 100 µM (inactive) and the GI50 (SW-620) was > 100 µM (inactive). For the same compound, the GI50 (TK-10) was > 100 µM (inactive), the GI50 (UACC-257) was > 100 µM (inactive) and the GI50 (XF498) was > 100 µM (inactive).

With `COC(=O)C(=O)C(C(=O)C=C(C)C)C(=O)C(=O)Nc1ccc(C)cc1C` (centres undefined) the GI50 (786-0) was > 100 µM (inactive), the GI50 (A549) was > 100 µM (inactive) and the GI50 (DMS-273) was > 100 µM (inactive). The GI50 (EKVX) was > 100 µM (inactive), the GI50 (HCT-116) was > 100 µM (inactive) and the GI50 (HT-29) was > 100 µM (inactive). The GI50 (NCI-H226) was > 100 µM (inactive), the GI50 (NCI-H522) was > 100 µM (inactive) and the GI50 (OVCAR-8) was > 100 µM (inactive). For the same compound, the GI50 (RXF 393) was > 100 µM (inactive), the GI50 (SF-539) was > 100 µM (inactive) and the GI50 (SK-MEL-28) was > 100 µM (inactive). The GI50 (SK-OV-3) was > 100 µM (inactive), the GI50 (SNB-75) was > 100 µM (inactive) and the GI50 (SW-620) was > 100 µM (inactive). For the same compound, the GI50 (TK-10) was > 100 µM (inactive), the GI50 (UACC-257) was > 100 µM (inactive) and the GI50 (XF498) was > 100 µM (inactive).

`CC1CC[P+](c2ccccc2)(c2ccccc2)CC1` was tested, and the GI50 (786-0) was > 100 µM (inactive), the GI50 (A549) was > 100 µM (inactive) and the GI50 (DMS-273) was 68.9 µM (inactive). The GI50 (EKVX) was 68.7 µM (inactive), the GI50 (HCT-116) was > 100 µM (inactive) and the GI50 (HT-29) was 79.3 µM (inactive). For the same compound, the GI50 (NCI-H226) was > 100 µM (inactive), the GI50 (NCI-H522) was 40.5 µM (inactive) and the GI50 (OVCAR-8) was > 100 µM (inactive). The GI50 (RXF 393) was > 100 µM (inactive), the GI50 (SF-539) was 78.3 µM (inactive) and the GI50 (SK-MEL-28) was > 100 µM (inactive). The GI50 (SK-OV-3) was > 100 µM (inactive), the GI50 (SNB-75) was 62.4 µM (inactive) and the GI50 (SW-620) was > 100 µM (inactive). The GI50 (TK-10) was > 100 µM (inactive), the GI50 (UACC-257) was 33.6 µM (inactive) and the GI50 (XF498) was 25.1 µM (inactive).

For `CC(C)(C)/N=N/C(C)(C)N=C=O`, the GI50 (786-0) was > 100 µM (inactive), the GI50 (A549) was > 100 µM (inactive) and the GI50 (DMS-273) was > 100 µM (inactive). The GI50 (EKVX) was 99.8 µM (inactive), the GI50 (HCT-116) was > 100 µM (inactive) and the GI50 (HT-29) was > 100 µM (inactive). For the same compound, the GI50 (NCI-H226) was > 100 µM (inactive), the GI50 (NCI-H522) was > 100 µM (inactive) and the GI50 (OVCAR-8) was > 100 µM (inactive). The GI50 (RXF 393) was > 100 µM (inactive), the GI50 (SF-539) was > 100 µM (inactive) and the GI50 (SK-MEL-28) was > 100 µM (inactive). The GI50 (SK-OV-3) was > 100 µM (inactive), the GI50 (SNB-75) was > 100 µM (inactive) and the GI50 (SW-620) was > 100 µM (inactive). The GI50 (TK-10) was > 100 µM (inactive), the GI50 (UACC-257) was > 100 µM (inactive) and the GI50 (XF498) was > 100 µM (inactive).

With `CC(C)CC12CC3CCC(CNC1=O)C32C` (centres undefined) the GI50 (786-0) was > 100 µM (inactive), the GI50 (A549) was > 100 µM (inactive) and the GI50 (DMS-273) was > 100 µM (inactive). For the same compound, the GI50 (EKVX) was > 100 µM (inactive), the GI50 (HCT-116) was 78.9 µM (inactive) and the GI50 (HT-29) was 72.9 µM (inactive). The GI50 (NCI-H226) was > 100 µM (inactive), the GI50 (NCI-H522) was > 100 µM (inactive) and the GI50 (OVCAR-8) was > 100 µM (inactive). For the same compound, the GI50 (RXF 393) was > 100 µM (inactive), the GI50 (SF-539) was > 100 µM (inactive) and the GI50 (SK-MEL-28) was > 100 µM (inactive). The GI50 (SK-OV-3) was > 100 µM (inactive), the GI50 (SNB-75) was > 100 µM (inactive) and the GI50 (SW-620) was > 100 µM (inactive). The GI50 (TK-10) was > 100 µM (inactive), the GI50 (UACC-257) was > 100 µM (inactive) and the GI50 (XF498) was > 100 µM (inactive).

For `COC(=O)C1=CO[C@@H](C)[C@@H]2Cn3ccc4c5ccccc5nc-4c3C[C@H]12` [ALSTONINE HYDROCHLORIDE], the GI50 (786-0) was > 100 µM (inactive), the GI50 (A549) was > 100 µM (inactive) and the GI50 (DMS-273) was > 100 µM (inactive). For the same compound, the GI50 (EKVX) was > 100 µM (inactive), the GI50 (HCT-116) was > 100 µM (inactive) and the GI50 (HT-29) was > 100 µM (inactive). For the same compound, the GI50 (NCI-H226) was > 100 µM (inactive), the GI50 (NCI-H522) was 51.6 µM (inactive) and the GI50 (OVCAR-8) was > 100 µM (inactive). For the same compound, the GI50 (RXF 393) was > 100 µM (inactive), the GI50 (SF-539) was > 100 µM (inactive) and the GI50 (SK-MEL-28) was > 100 µM (inactive). The GI50 (SK-OV-3) was > 100 µM (inactive), the GI50 (SNB-75) was > 100 µM (inactive) and the GI50 (SW-620) was > 100 µM (inactive). The GI50 (TK-10) was > 100 µM (inactive), the GI50 (UACC-257) was > 100 µM (inactive) and the GI50 (XF498) was 49.5 µM (inactive).
